{"source": "patent US12023336B2", "about": "“Antiviral drug compounds and composition thereof” (priority 2018, dated 2024)", "key": {"HIV-1NL4.3 [1]": {"tested_on": "HIV-1NL4.3", "test": "microbe, parasite or virus in culture", "assay_type": "cell-based", "settings": "Human immunodeficiency virus 1; 10 μM; HIV-1NL4.3 0.1 MOI; TZM-bl cells; luminescence 48 h; read-out: % Inhibition at 10 μM Concentration", "procedure": "TZM-bl cells were seeded at the density of 12,000-15,000 cells/well of 96 well plate with 100 μL DMEM (with 10% FBS) in each well. 12-hours post seeding, the media was replaced with fresh DMEM containing HTV-1NL4.3 at 0.1 MOI and cells were treated with different molecules independently at 10 μM working concentration. Cells were incubated in humidified CO2 incubator for 4-hours. After incubation, the media was replaced and cells were washed twice with incomplete DMEM and 100 μL of complete DMEM was added in each wells along with the molecules of interest and incubated at 37° C. in humidified CO2 incubator. 48-hours post incubation, the media was removed and cells were washed twice with 100 μL of 1×PBS. After washing, cells were lysed using cell culture lysis reagent and Steady-Glo substrate was added at 1:1 ration in each well. Luminescence was measured using Molecular Devices M5 (Table 2). % Inhibition was calculated using following formula and plotted.\n[formula] (RLU=Relative Luminescence Unit)"}, "HIV-1NL4.3 [2]": {"tested_on": "HIV-1NL4.3", "assay_type": "cell-based", "procedure": "Cells were then treated with molecules at different concentrations."}, "[3]": {"test": "MTT cytotoxicity in different cell types (CEM-GFP, Jurkat J6, U937, hPBMCs)", "assay_type": "cell-based", "settings": "human; all the cell types tested (CEM-GFP, Jurkat J6, U937, hPBMCs)", "source_text": "FIG. 2. depicts that MTX-HYD has similar cytotoxicity profile in different cell types. […] Untreated and DMSO treated cells were taken as controls."}, "[4]": {"biological_target": "T1, HIV-1 reverse transcriptase (Human immunodeficiency virus type 1 group M subtype B, UniProt P04585)", "T1 construct": "recombinant HIV-1 reverse transcriptase enzyme; purchased Roche, Germany", "test": "RNA dependent DNA polymerase activity assay of HIV-1 RT (RDDP assay)", "assay_type": "biochemical", "settings": "100 nM; cell free", "procedure": "(§1) MTX-HYD (100 nM) was tested on viral enzymes Reverse Transcriptase (a), Integrase (b) and Protease (c) in an in vitro cell free assay system. Nevirapine (NVP) (500 nM), Raltegravir (RLT) (1 μM), and Indinavir (IND) (500 nM) were used as the control inhibitors of RT, IN, and PR respectively. Untreated wells (UNT) were considered as negative controls. […] 72-hours post-infection virus production was determined in supernatant by p24 antigen capture ELISA (n=3).\nEffect of MTX-HYD and MTX on RNA dependent DNA polymerase activity of HIV-1 RT enzyme was tested with HIV-1 reverse transcriptase colorimetric assay kit (Roche, Germany) according to manufacturer's protocol. Briefly, 0.5 ng of recombinant HIV-1 reverse transcriptase enzyme in reaction buffer in presence or absence of MTX-HYD were incubated at room temperature for 5-10 min. Nevirapine (500 nM) treated wells were taken as positive control whereas untreated wells were taken as negative control and DMSO treated wells were taken as vehicle control. The reaction mixture containing Poly rA/OligodT (template/primers) and biotin or digoxigenin labelled dUTP nucleotide mixture was added to initiate the reverse transcription at 37° C. for 12-16 hours. […] ABTS substrate was then added to observe the colour reaction, which was read at 405 nm."}, "HIV-1 integrase": {"biological_target": "T2, HIV-1 integrase (Human immunodeficiency virus type 1 group M subtype B, UniProt P04585)", "T2 construct": "HIV-1 integrase enzyme; purchased XpressBio, USA", "test": "Cell free assay for HIV-1 Integrase activity", "assay_type": "biochemical", "settings": "100 nM", "procedure": "as §1\nMTX-HYD was tested for its effect, if any, on HIV-1 Integrase enzyme using HIV-1 integrase assay kit (XpressBio, USA) according to manufacturer's protocol. Briefly, biotin coated 5′ Donor Strand (DS) was loaded on to streptavidin coated wells and incubated at 37° C. 30-minutes post incubation, wells were washed and unattached DS was removed. After washing, HIV-1 integrase enzyme and Transfer Strand (TS) were added to the wells in presence of MTX-HYD and incubated at 37° C. Raltegravir treated wells were taken as positive controls whereas untreated wells were taken as negative control and DMSO treated wells were taken as vehicle control. 30-minutes post incubation, wells were washed and 100 μL/well TMB substrate was added and incubated for […] at room temperature. 100 μL/well TMB stop solution was added and absorbance was measured at 450 nm."}, "HIV-1 protease": {"biological_target": "T3, HIV-1 protease (Human immunodeficiency virus type 1 group M subtype B, UniProt P04585)", "T3 construct": "HIV-1 protease enzyme; purchased Biovision, USA", "test": "Cell free assay for HIV-1 Protease activity", "assay_type": "biochemical", "settings": "100 nM", "procedure": "as §1\nEffect of MTX-HYD on HIV-1 Protease enzyme was determined using HIV-1 Protease Activity Assay Kit, Fluorometric (Biovision, USA) according to manufacturer's protocol. Briefly, in a single step reaction, HIV-1 protease enzyme was diluted in reaction buffer and 10 nmol/well was loaded in 96 well plate in presence or absence of MTX-HYD (100 nM). Indinavir (IND) (500 nM) treated wells were taken as positive control and untreated wells were considered as negative control. 15-minutes post addition, Fluorescence was measured using Molecular Devices M5 at Ex/Em=330/450 nm (FIG. 6)."}, "NF-kB pathway": {"tested_on": "NF-kB pathway", "test": "Immunoblotting of IkB phosphorylation and p65 in HIV-1NL4.3 infected CEM-GFP cells", "assay_type": "cell-based", "settings": "100 nM, 24, 48, 72 h post infection", "quoted_text": "(a) CEM-GFP cells were infected with 0.5 MOI of HIV-1NL4.3 in presence or absence of MTX-HYD (100 nM). Cells were harvested at different time points (24 h, 48 h and 72 h) post-infection. Phosphorylation of IxB was analysed by immunoblotting. (c) CEM-GFP cells were infected with 0.5MOI of HIV-1NL4.3 in presence or absence of MTX-HYD (100 nM) and nuclear cytoplasmic fractions were prepared using NE-PER nuclear-cytoplasmic fractionation kit. p65 levels in both cytoplasm and nucleus were analyzed by immunoblotting. (b and d) Densitometric analysis of immunoblots using QuantityOne software (n=3)."}, "[5]": {"tested_on": "different isolates of HIV-1", "test": "Anti-HIV activity against different isolates of HIV-1 in CEM-GFP cells and hPBMCs, p24 ELISA", "assay_type": "cell-based", "settings": "0.5 MOI of different isolates, 0.01, 0.1 and 1 MOI of HIV-1NL4.3", "procedure": "Cells were then treated with molecules at different concentrations. Untreated cells were taken as negative control and DMSO treated cells were taken as vehicle control."}}}
{"smiles": "CN(Cc1cnc2nc(N)nc(N)c2n1)c1ccc(C(=O)N[C@@H](CCC(=O)O)C(=O)O)cc1", "note": "[Methotrexate Hydrate]", "values": [{"measurement": "inhibition at 10 µM", "setting": "HIV-1NL4.3 [1]", "result": 98.5, "unit": "%"}, {"measurement": "stage of virus life cycle at which it acts", "setting": "HIV-1NL4.3 [2]; 100 nM, treated at different stages of virus infection, CEM-GFP", "result": "works at an early stage of the life cycle"}, {"measurement": "anti-HIV potential better than MTX", "setting": "HIV-1NL4.3 [2]; versus MTX (FIG. 1)", "result": "~10", "unit": "fold"}, {"measurement": "CC50 at 48 h", "setting": "[3]", "result": "50 to 75", "unit": "µM"}, {"measurement": "effect on Reverse Transcriptase", "setting": "[4]", "result": "does not target viral enzymes"}, {"measurement": "effect on Integrase", "setting": "HIV-1 integrase", "result": "does not target viral enzymes"}, {"measurement": "effect on Protease", "setting": "HIV-1 protease", "result": "does not target viral enzymes"}, {"measurement": "IkB phosphorylation", "setting": "NF-kB pathway", "result": "may inhibit IkB phosphorylation"}, {"measurement": "anti-HIV activity across virus isolates and viral loads", "setting": "[5]", "result": "not virus isolate and viral load dependent phenomena"}]}
